From article PMC9962964, “^68Ga-Labeled [Thz^14]Bombesin(7–14) Analogs: Promising GRPR-Targeting Agonist PET Tracers with Low Pancreas Uptake” (Molecules, 2023)
Like-named read-outs stand apart in the source and are kept apart here.

How the values were obtained:
GRPR [1] = target: T1, GRPR (Homo sapiens, UniProt P30550); assay: Fluorometric calcium release assay in PC-3 cells; assay type: cell-based; set-up: generated using GRPR-expressing PC-3 cells; endogenous in cells; host or cells: PC-3 cells; conditions: 50 nM ligand
T1 sequence (P30550 whole entry): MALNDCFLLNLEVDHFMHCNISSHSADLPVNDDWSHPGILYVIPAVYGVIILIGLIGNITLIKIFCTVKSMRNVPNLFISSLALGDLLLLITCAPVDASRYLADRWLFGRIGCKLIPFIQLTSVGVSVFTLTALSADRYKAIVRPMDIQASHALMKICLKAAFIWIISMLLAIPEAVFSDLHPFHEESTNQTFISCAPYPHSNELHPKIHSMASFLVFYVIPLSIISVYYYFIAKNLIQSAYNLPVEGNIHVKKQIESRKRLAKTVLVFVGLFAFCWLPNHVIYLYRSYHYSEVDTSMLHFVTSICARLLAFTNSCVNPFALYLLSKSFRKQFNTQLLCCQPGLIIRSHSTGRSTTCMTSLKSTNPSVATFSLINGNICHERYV
Protocol: Following previously published procedures, 5 × 10^4 PC-3 cells in 100 μL of growth media were seeded per well in a 96-well, clear bottom black plate 24 h before the assay. The loading buffer (100 μL/well), containing a calcium-sensitive dye (FLIPR Calcium 6 assay kit), was added to the 96-well plate. After incubation at 37 °C for 2 h, the plate was placed in a FlexStation 3 microplate reader (Molecular Devices). […] Agonistic/antagonistic properties were determined using the relative fluorescent unit (RFU = max–min).

PC-3 tumor xenografts = assay: PET/CT imaging of PC-3 tumor xenografts; assay type: in vivo, NRG mice; conditions: 1 h post-injection
Protocol: PET/CT imaging experiments were performed on a Siemens (Knoxville, TN) Inveon micro PET/CT scanner. The tumor-bearing mouse was injected with 3–5 MBq of ^68Ga-labeled tracer through a lateral caudal tail vein under anesthesia, followed by recovery and roaming freely in its cage during the uptake period. At 50 min post-injection, a 10 min CT scan was conducted first for the localization and attenuation correction after segmentation for reconstructing the PET images, followed by a 10 min static PET imaging acquisition.

[2] = pH 7.4
Protocol: Briefly, aliquots (2 μL) of the ^68Ga-labeled peptides were added into a 15 mL falcon tube containing 3 mL of n-octanol and 3 mL of 0.1 mol/L DPBS (pH 7.4). The mixture was vortexed for 1 min and then centrifuged at 3000 rpm for 15 min. Samples of the n-octanol (1 mL) and buffer (1 mL) layers were collected and measured in a gamma counter. LogD7.4 was calculated using the following equation: LogD7.4 = log10 [(counts in the n-octanol phase)/(counts in the buffer phase)].

[3] = Ex vivo biodistribution in PC-3 tumor-bearing mice; set-up: species or system NRG mice; conditions: mouse, 1 h post-injection; for tissue to tissue ratio at 1 h: male, NRG (NOD.Cg-Rag1^tm1Mom Il2rg^tm1Wjl/SzJ), iv, total radioactivity; for tissue uptake at 1 h: intravenous
Protocol: For biodistribution studies, the mice were injected with the radiotracer (2–4 MBq) via the tail vein as described above. For blocking, the mice were co-injected with 100 μg of [D-Phe^6,Leu-NHEt^13,des-Met^14]Bombesin(6–14). At 1 h post-injection, the mice were anesthetized through isoflurane inhalation and euthanized through CO2 inhalation. Blood was collected through a cardiac puncture, and organs/tissues of interest were collected, weighed, and counted using a Perkin Elmer (Waltham, MA, USA) Wizard2 2480 automatic gamma counter.

[4] = 15 min post-injection
Protocol: PET/CT imaging, biodistribution, and in vivo stability studies were conducted on male NOD.Cg-Rag1^tm1Mom Il2rg^tm1Wjl/SzJ (NRG) mice, following previously published procedures. The experiments were conducted according to the guidelines established by the Canadian Council on Animal Care and approved by the Animal Ethics Committee of the University of British Columbia (protocol number A20-0113, approved on 30 September 2020). […] Mice were used for PET/CT imaging and biodistribution studies when the tumor grew to 5–8 mm in diameter over around 4 weeks.
At 15 min post-injection, mice were sedated and euthanized, and urine and blood were collected. The plasma was extracted from whole blood by adding CH3CN (500 μL), vortex, centrifugation, and the separation of supernatant. The plasma and urine samples were analyzed via radio-HPLC using the conditions for quality control of these ^68Ga-labeled radioligands (Table S3).

GRPR [5] = target: T1, GRPR; set-up: generated using GRPR-expressing PC-3 cells; endogenous in cells; method as in PMID 21552898, PMID 7809097; conditions: Schally group; cited from earlier work
GRPR [6] = target: T1, GRPR; assay: In vitro competition binding assay with [125I-Tyr4]Bombesin on PC-3 cells; set-up: generated using GRPR-expressing PC-3 cells; endogenous in cells; host or cells: PC-3 cells; conditions: displacement of [125I-Tyr4]Bombesin, n = 3
Protocol: PC-3 cells were seeded in 24-well, poly-D-lysine plates at 2 × 10^5 cells/well 24–48 h prior to the assay. […] Then, the plates were incubated for about 60 min at 37 °C. […] Data were analyzed using nonlinear regression (one binding site model for competition assay) with GraphPad (San Diego, CA, USA) Prism 8.4.3 software.

Molecule: Nc1ncnc2c1ncn2[C@@H]1O[C@H](COP(=O)(O)OP(=O)(O)OP(=O)(O)O)[C@@H](O)[C@H]1O [ATP, adenosine triphosphate]
- Ca2+ efflux (RFU = max–min) (GRPR [1]): 334 ± 39.0 RFUs

Molecule: CC(C)C[C@H](NC(=O)[C@H](Cc1c[nH]cn1)NC(=O)CNC(=O)[C@@H](NC(=O)[C@H](C)NC(=O)[C@H](Cc1c[nH]c2ccccc12)NC(=O)[C@H](CCC(N)=O)NC(=O)[C@@H](Cc1ccc2ccccc2c1)NC(=O)CN1CCC(NC(=O)CN2CCN(CC(=O)O)CCN(CC(=O)O)CCN(CC(=O)O)CC2)CC1)C(C)C)C(=O)N1CSC[C@H]1C(N)=O [[^68Ga]Ga-TacBOMB3, metal not drawn]
- visualization of PC-3 tumor xenografts in PET images (PC-3 tumor xenografts): clearly visualized
- excretion pathway (PC-3 tumor xenografts; PET images): primarily excreted via the renal pathway
- logD [2]: -2.55 ± 0.03
- tissue to tissue ratio at 1 h ([3]; tumor and bone, n = 4, read-out: Tumor/bone uptake ratio): 29.9 ± 8.5
- tissue to tissue ratio at 1 h ([3]; tumor and intestines, n = 4, read-out: Tumor/intestines uptake ratio): 4.93 ± 0.84
- tissue to tissue ratio at 1 h ([3]; tumor and kidney, n = 4, read-out: Tumor/kidney uptake ratio): 1.34 ± 0.58
- tissue to tissue ratio at 1 h ([3]; tumor and muscle, n = 4, read-out: Tumor/muscle uptake ratio): 23.5 ± 9.61
- tissue to tissue ratio at 1 h ([3]; tumor and pancreas, n = 4, read-out: Tumor/pancreas uptake ratio): 2.21 ± 0.4
- tissue to tissue ratio at 1 h ([3]; tumor and whole blood, n = 4, read-out: Tumor/blood uptake ratio): 5.61 ± 2.33
- tissue uptake at 1 h ([3]; PC-3 tumor, n = 4, read-out: PC-3 tumor uptake): 5.09 ± 0.54 %ID/g
- tissue uptake at 1 h ([3]; blood, n = 4, read-out: Blood uptake): 1.06 ± 0.51 %ID/g
- tissue uptake at 1 h ([3]; brain, muscle, fat, bone, liver, stomach, heart, and spleen, read-out: Uptake values for the brain, muscle, fat, bone, liver, stomach, heart, and spleen): < 1 %ID/g
- tissue uptake at 1 h ([3]; fat, n = 4, read-out: Fat uptake): 0.19 ± 0.18 %ID/g
- tissue uptake at 1 h ([3]; heart, n = 4, read-out: Heart uptake): 0.35 ± 0.18 %ID/g
- tissue uptake at 1 h ([3]; intestines, n = 4, read-out: Intestines uptake): 1.06 ± 0.26 %ID/g
- tissue uptake at 1 h ([3]; kidneys, n = 4, read-out: Kidneys uptake): 4.61 ± 2.72 %ID/g
- tissue uptake at 1 h ([3]; liver, n = 4, read-out: Liver uptake): 0.65 ± 0.19 %ID/g
- tissue uptake at 1 h ([3]; lungs, n = 4, read-out: Lungs uptake): 1.63 ± 0.75 %ID/g
- tissue uptake at 1 h ([3]; muscle, n = 4, read-out: Muscle uptake): 0.24 ± 0.12 %ID/g
- tissue uptake at 1 h ([3]; pancreas, n = 4, read-out: Pancreas uptake): 2.41 ± 0.72 %ID/g
- tissue uptake at 1 h ([3]; spleen, n = 4, read-out: Spleen uptake): 0.5 ± 0.32 %ID/g
- tissue uptake at 1 h ([3]; stomach, n = 4, read-out: Stomach uptake): 0.82 ± 0.37 %ID/g
- tissue uptake at 1 h ([3]; testes, n = 4, read-out: Testes uptake): 0.37 ± 0.06 %ID/g
- intact fraction in plasma ([4]; mouse plasma, n = 3): 27.3 ± 4.84%
- intact tracer in urine ([4]; mouse urine): no intact

Molecule: D-2-Nal-[Leu^13ψThz^14]Bombesin(7–14) [RC-3965-II]
- binding affinity to GRPR (GRPR [5]): picomolar binding affinity

Molecule: D-Phe-[Leu^13ψThz^14]Bombesin(7–14) [RC-3950-II]
- binding affinity to GRPR (GRPR [5]): picomolar binding affinity

Molecule: D-Tpi-[Leu^13ψThz^14]Bombesin(7–14) [RC-3910-II]
- binding affinity to GRPR (GRPR [5]): picomolar binding affinity

Molecule: Ga-TacBOMB2: nonradioactive Ga-complexed standard of TacBOMB2 (FQWAVGHLX; Ga-DOTA-Pip (4-amino-(1-carboxymethyl)piperidine) on the N-terminus; residue 1 is D-Phe; X9 = Thz (thiazoline/thiazolidine-4-carboxylic acid, named thiazoline in the text) replacing Met14, normal Leu1)
- Ki (GRPR [6]): 7.62 ± 0.19 nM

Molecule: [D-Phe^6,Leu-NHEt^13,des-Met^14]Bombesin(6–14)
- Ca2+ efflux (RFU = max–min) (GRPR [1]): 25.3 ± 1.92 RFUs

Molecule: bombesin
- Ca2+ efflux (RFU = max–min) (GRPR [1]): 754 ± 38.3 RFUs
